Assay results reported in patent publication US20040014215A1, “Synchronised arabidopsis cell suspensions and uses thereof” (priority 2000, published 2004).

Test system: Arabidopsis cell suspension MM2d
Experiment: Aphidicolin block/release of MM2d: proportion of G1, S and G2 cells by flow cytometry
Format: cell-based, Arabidopsis thaliana
Protocol: The level of synchronicity of the Arabidopsis cell suspension culture MM1 was analysed by flow cytometry. The cell pellet from 5 ml of cell suspension culture was frozen in liquid nitrogen. To analyse the DNA content, the High Resolution Kit for Plant ploidy analysis (Type P) (Partec, Cat. No. 06-5-4004) was used, containing solution A (to release cell nuclei) and solution B (to stain DNA with DAPI). A sample of the frozen cell pellet was transferred into a small petri-dish (5 cm diameter), 150 μl of solution A was added, and the sample was carefully chopped with vertical motion of a sharp razor blade. An additional 150 μl of solution A was added, the cell suspension pipetted up and down for several time before leaving for approximately 2 min at RT. The released cell nuclei were filtered through a 50 μm nylon mesh (Partec, CellTrics 50 μm, Cat. No. 06-4-2317) and 1 ml of solution B was added to the filtrate. On average 8200 particles were counted with a flow cytometer (PASIII; Partec GmbH, Germany), using HBO lamp excitation (Partec, mercury lamp HBO 100 long life, 100W) and detection of emission using a blue filter. Cell cycle phases were analysed using Multicycle for Windows (Phoenix Flow Systems, San Diego, Calif.). Flow cytometry results are not corrected for the mitotic cells (which are not measured by this method).
This experiment was carried out as described for Example 1, except that cell line MM2d was used, and the culture conditions throughout the experiment were as described for MM2d in Example 1.
Synchronisation was performed as described in Example 2A, with the exception that before adding aphidicolin, 20 ml of the weekly subcultured cell suspension was transferred into 100 ml fresh MSS-medium in each of 2 separate flasks and cultivated under conditions as described in Example 1 for MM2d. […] Samples were taken at the same time frame for flow cytometry to follow cell cycle transition.
Samples were analysed by flow cytometry to determine the percentage of cells being in G1-, S- and G2M phase. The mitotic index (MI) and labelling index (LI) were independently determined (as described in Example 2A). Results are shown below in table II and in FIG. 1.
Table II. Aphidicolin block/release of Arabidopsis cell suspension MM2d. Data are shown from analysis of samples obtained in the experiment described in Example 2B.

C[C@@]1(CO)[C@H](O)CC[C@@]2(C)[C@H]1CC[C@H]1C[C@@H]3C[C@@]12CC[C@]3(O)CO [aphidicolin]
G1 (%) MM2d (0 h after aphidicolin removal): 46.9% | G2 (%) MM2d (0 h after aphidicolin removal): 16.4% | S (%) MM2d (0 h after aphidicolin removal): 36.6% | G1 (%) MM2d (1 h after aphidicolin removal): 16.6% | G2 (%) MM2d (1 h after aphidicolin removal): 4.9% | S (%) MM2d (1 h after aphidicolin removal): 78.6% | G1 (%) MM2d (2 h after aphidicolin removal): 21.5% | G2 (%) MM2d (2 h after aphidicolin removal): 5.3% | S (%) MM2d (2 h after aphidicolin removal): 73.2% | G1 (%) MM2d (3 h after aphidicolin removal): 24.8% | G2 (%) MM2d (3 h after aphidicolin removal): 11.2% | S (%) MM2d (3 h after aphidicolin removal): 64.1% | G1 (%) MM2d (4 h after aphidicolin removal): 18.8% | G2 (%) MM2d (4 h after aphidicolin removal): 48.2% | S (%) MM2d (4 h after aphidicolin removal): 33% | G1 (%) MM2d (5 h after aphidicolin removal): 15.1% | G2 (%) MM2d (5 h after aphidicolin removal): 74.8% | S (%) MM2d (5 h after aphidicolin removal): 10.1% | G1 (%) MM2d (6 h after aphidicolin removal): 12.5% | G2 (%) MM2d (6 h after aphidicolin removal): 80.6% | S (%) MM2d (6 h after aphidicolin removal): 6.9% | G1 (%) MM2d (7 h after aphidicolin removal): 10.5% | G2 (%) MM2d (7 h after aphidicolin removal): 89.5% | S (%) MM2d (7 h after aphidicolin removal): 0% | G1 (%) MM2d (8 h after aphidicolin removal): 9% | G2 (%) MM2d (8 h after aphidicolin removal): 91% | S (%) MM2d (8 h after aphidicolin removal): 0% | G1 (%) MM2d (9 h after aphidicolin removal): 7.6% | G2 (%) MM2d (9 h after aphidicolin removal): 92.4% | S (%) MM2d (9 h after aphidicolin removal): 0% | G1 (%) MM2d (10 h after aphidicolin removal): 10.1% | G2 (%) MM2d (10 h after aphidicolin removal): 89.6% | S (%) MM2d (10 h after aphidicolin removal): 0% | G1 (%) MM2d (11 h after aphidicolin removal): 17.2% | G2 (%) MM2d (11 h after aphidicolin removal): 82.8% | S (%) MM2d (11 h after aphidicolin removal): 0% | G1 (%) MM2d (12 h after aphidicolin removal): 27.7% | G2 (%) MM2d (12 h after aphidicolin removal): 72.3% | S (%) MM2d (12 h after aphidicolin removal): 0% | G1 (%) MM2d (13 h after aphidicolin removal): 32.1% | G2 (%) MM2d (13 h after aphidicolin removal): 67.9% | S (%) MM2d (13 h after aphidicolin removal): 0% | G1 (%) MM2d (14 h after aphidicolin removal): 34.3% | G2 (%) MM2d (14 h after aphidicolin removal): 65.7% | S (%) MM2d (14 h after aphidicolin removal): 0% | G1 (%) MM2d (15 h after aphidicolin removal): 40.7% | G2 (%) MM2d (15 h after aphidicolin removal): 59.3% | S (%) MM2d (15 h after aphidicolin removal): 0% | G1 (%) MM2d (16 h after aphidicolin removal): 34.9% | G2 (%) MM2d (16 h after aphidicolin removal): 59.4% | S (%) MM2d (16 h after aphidicolin removal): 5.8% | G1 (%) MM2d (17 h after aphidicolin removal): 40.8% | G2 (%) MM2d (17 h after aphidicolin removal): 52% | S (%) MM2d (17 h after aphidicolin removal): 7.3% | G1 (%) MM2d (18 h after aphidicolin removal): 40.7% | G2 (%) MM2d (18 h after aphidicolin removal): 47.9% | S (%) MM2d (18 h after aphidicolin removal): 11.3% | G1 (%) MM2d (19 h after aphidicolin removal): 38.4% | G2 (%) MM2d (19 h after aphidicolin removal): 47.3% | S (%) MM2d (19 h after aphidicolin removal): 14.4% | G1 (%) MM2d (20 h after aphidicolin removal): 37.7% | G2 (%) MM2d (20 h after aphidicolin removal): 45.5% | S (%) MM2d (20 h after aphidicolin removal): 16.9% | maximum G2 synchrony (MM2d, flow cytometry): 90% | maximum S phase synchrony (MM2d, flow cytometry): 79%
